The source of these data is patent US10245275B2 (ViiV HEALTHCARE UK (NO.4) LIMITED, priority 2014, dated 2019).

SMILES strings stand for the structures. Like-named read-outs stand apart in the source and are kept apart here.

The test system of test [1] is WT (wild-type HIV virus; recombinant NL4-3 virus). Nature of the test: microbe, parasite or virus in culture. In kind it is cell-based, HIV-1. A digest of the protocol: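 MT-2 cells infected 4-5 days with NL4-3 carrying Renilla luciferase in place of part of nef (Gag P373S), virus made by 293T transfection, with serial inhibitor dilutions. Antiviral activity read as luciferase activity by a modified dual-luciferase read-out.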

Test [2] relates to HIV-1 NL4-3 gag A364V virus. Nature of the test: microbe, parasite or virus in culture. In kind it is cell-based. A digest of the protocol: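 Recombinant NL4-3 reporter virus with Renilla luciferase replacing part of nef, made by transfection of 293T cells. MT-2 cells infected for 4-5 days with serial inhibitor dilutions; antiviral activity quantified by luciferase activity.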

[3] abbreviates: Human immunodeficiency virus 1, NL43, MT2, read-out: WT (EC50, uM), Table 1 regular screen, MT-2 cells, luciferase readout.
Setting [4] is: Human immunodeficiency virus 1, NL43, MT2, read-out: A364V (EC50, uM), Table 1 regular screen, MT-2 cells, luciferase readout.
Where [5] appears, read: Human immunodeficiency virus 1, NL43, MT2, read-out: WT (EC50, uM), Table 1 regular screen, class symbol.
The mark [6] stands for this setting: Human immunodeficiency virus 1, NL43, MT2, read-out: A364V (EC50, uM), Table 1 regular screen, class symbol.

What is called EC50 is the concentration at which the effect is half-maximal. On to `CC(C)[C@@H]1CC[C@]2(NCCN3CCS(=O)(=O)CC3)CC[C@]3(C)[C@H](CC[C@@H]4[C@@]5(C)CC=C(C6=CC[C@@](CF)(C(=O)O)CC6)C(C)(C)[C@@H]5CC[C@]43C)[C@@H]12` [Example 22, (R)-4-((1S,3aS,5aR,5bR,7aR,11aS,11bR,13aR,13bR)-3a-((2-(1,1-dioxidothiomorpholino)ethyl)amino)-1-isopropyl-5a,5b, 8,8,11a-pentamethyl-2,3,3a,4,5,5a,5b,6,7,7a,8,11,11a,11b,12,13,13a,13b-octadecahydro-1H-cyclopenta[a]chrysen-9-yl)-1-(fluoromethyl)cyclohex-3-enecarboxylic acid], for which the EC50 in test [1] (setting [3]) was 0.00134 µM; in test [2] (setting [4]), 0.0513 µM.
For the compound `C=C(C)[C@@H]1CC[C@]2(NCCN3CCN(C(C)=O)C(C)(C)C3=O)CC[C@]3(C)[C@H](CC[C@@H]4[C@@]5(C)CC=C(C6=CC[C@](CF)(C(=O)O)CC6)C(C)(C)[C@@H]5CC[C@]43C)[C@@H]12` [Example 2-27, (S)-4-((1R,3aS,5aR,5bR,7aR,11aS,11bR,13aR,13bR)-3a-((2-(4-acetyl-3,3-dimethyl-2-oxopiperazin-1-yl)ethyl)amino)-5a,5b, 8,8,11a-pentamethyl-1-(prop-1-en-2-yl)-2,3,3a,4,5,5a,5b,6,7,7a,8,11,11a,11b,12,13,13a,13b-octadecahydro-1H-cyclopenta[a]chrysen-9-yl)-1-(fluoromethyl)cyclohex-3-enecarboxylic acid], the concentration giving a half-maximal response (EC50) in test [1] (setting [3]) is 0.00577 µM; in test [2] (setting [4]) it was 0.0201 µM.
In the case of `C=C(C)[C@@H]1CC[C@]2(NCCC(O)(CC)CC)CC[C@]3(C)[C@H](CC[C@@H]4[C@@]5(C)CC=C(C6=CC[C@](CF)(C(=O)O)CC6)C(C)(C)[C@@H]5CC[C@]43C)[C@@H]12` [Example 2-4, (S)-4-((1R,3aS,5aR,5bR,7aR,11aS,11bR,13aR,13bR)-3a-((3-ethyl-3-hydroxypentyl)amino)-5a,5b,8,8,11a-pentamethyl-1-(prop-1-en-2-yl)-2,3,3a,4,5,5a,5b,6,7,7a,8,11,11a,11b,12,13,13a,13b-octadecahydro-1H-cyclopenta[a]chrysen-9-yl)-1-(fluoromethyl)cyclohex-3-enecarboxylic acid], the concentration giving a half-maximal response (EC50) in test [1] (setting [5]) was below 0.05 µM; in test [2] (setting [6]), above 0.05 µM.
In the case of `C=C(C)[C@@H]1CC[C@]2(NCC(=O)N3CCS(=O)(=O)C3)CC[C@]3(C)[C@H](CC[C@@H]4[C@@]5(C)CC=C(C6=CC[C@](CF)(C(=O)O)CC6)C(C)(C)[C@@H]5CC[C@]43C)[C@@H]12` [Example 35, (S)-4-((1R,3aS,5aR,5bR,7aR,11aS,11bR,13aR,13bR)-3a-((2-(1,1-dioxidothiazolidin-3-yl)-2-oxoethyl)amino)-5a,5b,8,8,11a-pentamethyl-1-(prop-1-en-2-yl)-2,3,3a,4,5,5a,5b,6,7,7a,8,11,11a,11b,12,13,13a,13b-octadecahydro-1H-cyclopenta[a]chrysen-9-yl)-1-(fluoromethyl)cyclohex-3-enecarboxylic acid], the half-maximal effective concentration (EC50) was determined as 0.00157 µM in test [1] (setting [3]) and 0.157 µM in test [2] (setting [4]).
For `C=C(C)[C@@H]1CC[C@]2(NCC[C@]3(O)CC[C@](C)(O)CC3)CC[C@]3(C)[C@H](CC[C@@H]4[C@@]5(C)CC=C(C6=CC[C@](CF)(C(=O)O)CC6)C(C)(C)[C@@H]5CC[C@]43C)[C@@H]12` [Example 2-16, (S)-4-((1R,3aS,5aR,5bR,7aR,11aS,11bR,13aR,13bR)-3a-((2-((trans)-1,4-dihydroxy-4-methylcyclohexyl)ethyl)amino)-5a,5b,8,8,11a-pentamethyl-1-(prop-1-en-2-yl)-2,3,3a,4,5,5a,5b,6,7,7a,8,11,11a,11b,12,13,13a,13b-octadecahydro-1H-cyclopenta[a]chrysen-9-yl)-1-(fluoromethyl)cyclohex-3-enecarboxylic acid], the EC50 in test [1] (setting [3]) is 0.0021 µM; in test [2] (setting [4]), 0.0571 µM.
As to `C=C(C)[C@@H]1CC[C@]2(NC(CN)C(F)(F)F)CC[C@]3(C)[C@H](CC[C@@H]4[C@@]5(C)CC=C(C6=CC[C@](CF)(C(=O)O)CC6)C(C)(C)[C@@H]5CC[C@]43C)[C@@H]12` (single isomer, unassigned) [Example 39], the EC50 in test [1] (setting [3]) was found to be 0.0473 µM; in test [2] (setting [4]), 2.03 µM.
Regarding `C=C(C)[C@@H]1CC[C@]2(NCCC3(O)CCC3)CC[C@]3(C)[C@H](CC[C@@H]4[C@@]5(C)CC=C(C6=CC[C@](CF)(C(=O)O)CC6)C(C)(C)[C@@H]5CC[C@]43C)[C@@H]12` [Example 2-9, (S)-1-(fluoromethyl)-4-((1R,3aS,5aR,5bR,7aR,11aS,11bR,13aR,13bR)-3a-((2-(1-hydroxycyclobutyl)ethyl)amino)-5a,5b,8,8,11a-pentamethyl-1-(prop-1-en-2-yl)-2,3,3a,4,5,5a,5b,6,7,7a,8,11,11a,11b,12,13,13a,13b-octadecahydro-1H-cyclopenta[a]chrysen-9-yl)cyclohex-3-enecarboxylic acid], the values for the half-maximal effective concentration (EC50) in test [1] (setting [5]) and in test [2] (setting [6]) were below 0.05 µM and above 0.05 µM, respectively.
In the case of `C=C(C)[C@@H]1CC[C@]2(NCCN3CCOC3=O)CC[C@]3(C)[C@H](CC[C@@H]4[C@@]5(C)CC=C(C6=CC[C@](CF)(C(=O)O)CC6)C(C)(C)[C@@H]5CC[C@]43C)[C@@H]12` [Example 2-24, (S)-1-(fluoromethyl)-4-((1R,3aS,5aR,5bR,7aR,11aS,11bR,13aR,13bR)-5a,5b,8,8,11a-pentamethyl-3a-((2-(2-oxooxazolidin-3-yl)ethyl)amino)-1-(prop-1-en-2-yl)-2,3,3a,4,5,5a,5b,6,7,7a,8,11,11a,11b,12,13,13a,13b-octadecahydro-1H-cyclopenta[a]chrysen-9-yl)cyclohex-3-enecarboxylic acid], the EC50 turned out to be 0.0053 µM in test [1] (setting [3]) and 0.932 µM in test [2] (setting [4]).
On to `C=C(C)[C@@H]1CC[C@]2(NCC[C@]3(O)CC[C@H](S(C)(=O)=O)CC3)CC[C@]3(C)[C@H](CC[C@@H]4[C@@]5(C)CC=C(C6=CC[C@](CF)(C(=O)O)CC6)C(C)(C)[C@@H]5CC[C@]43C)[C@@H]12` [Example 2-21, (S)-1-(fluoromethyl)-4-((1R,3aS,5aR,5bR,7aR,11aS,11bR,13aR,13bR)-3a-((2-((trans)-1-hydroxy-4-(methylsulfonyl)cyclohexyl)ethyl)amino)-5a,5b, 8,8,11a-pentamethyl-1-(prop-1-en-2-yl)-2,3,3a,4,5,5a,5b,6,7,7a,8,11,11a,11b,12,13,13a,13b-octadecahydro-1H-cyclopenta[a]chrysen-9-yl)cyclohex-3-enecarboxylic acid], for which the EC50 in test [1] (setting [5]) is below 0.05 µM; in test [2] (setting [6]), above 0.05 µM.
Regarding `C=C(C)[C@@H]1CC[C@]2(NCCN3CCOCC3)CC[C@]3(C)[C@H](CC[C@@H]4[C@@]5(C)CC=C(C6=CC[C@](CF)(C(=O)O)CC6)C(C)(C)[C@@H]5CC[C@]43C)[C@@H]12` [Example 3, (S)-1-(fluoromethyl)-4-((1R,3aS,5aR,5bR,7aR,11aS,11bR,13aR,13bR)-5a,5b,8,8,11a-pentamethyl-3a-((2-morpholinoethyl)amino)-1-(prop-1-en-2-yl)-2,3,3a,4,5,5a,5b,6,7,7a,8,11,11a,11b,12,13,13a,13b-octadecahydro-1H-cyclopenta[a]chrysen-9-yl)cyclohex-3-enecarboxylic acid], the EC50 in test [1] (setting [3]) was found to be 0.00453 µM; in test [2] (setting [4]) it was 0.679 µM.
`C=C(C)[C@@H]1CC[C@]2(NCCN3CCS(=O)(=O)CC3C(=O)OCC)CC[C@]3(C)[C@H](CC[C@@H]4[C@@]5(C)CC=C(C6=CC[C@@](CF)(C(=O)O)CC6)C(C)(C)[C@@H]5CC[C@]43C)[C@@H]12` (single isomer, unassigned) [Example 14]: the concentration for a half-maximal effect (EC50) in test [1] (setting [5]) and in test [2] (setting [6]) was below 0.05 µM each time.
